Test results reported in patent US20230028293A1, “MULTIPLE MYELOMA COMBINATION THERAPIES BASED ON PROTEIN TRANSLATION INHIBITORS AND IMMUNOMODULATORS” (The Regents of the University of Colorado, a body corporate, priority 2019, published 2023).
Where “and” joins values, the source holds several entries; their conditions need not be identical. Identical values can stand only once.

Experiments:
[1] = test system: c-MYC; assay: Quantitative flow cytometry of c-MYC antigen density; assay type: cell-based; conditions: 24 h treatment
[2] = test system: IMiD-resistant relapsed MM patient sample; assay: Two-drug combination matrix in primary MM patient sample, ZIP synergy; assay type: cell-based, human
Procedure: Drug combination studies were set up using a full matrix design with myeloma cell lines or primary samples. Synergy was calculated using ZIP delta score via the SnergyFinder online tool (synergyfinder.fimm.fi). Combination index values were calculated using the CompuSyn software (ComboSyn Inc).

[3] = test system: MCL1; assay: Quantitative intracellular flow cytometry of MCL1; assay type: cell-based; conditions: 50 nM, 6 h
Procedure: Quantitative flow cytometry was used to measure MCL1 and BCL2 densities per cell. Anti-MCL1 and anti-BCL2 antibodies were labeled with Alexa Fluor 647 (Molecular Probes/life Technologies) according to manufacturer's instructions. Intracellular staining of MCL1 and BCL2 was conducted following permeabilization with the Cytofix/Cytoperm kit (BD). Mean fluorescence intensity was converted to molecules of equivalent soluble fluorochrome (MESF) by generating a standard curve with Quantum™ beads (Bangs Labs, Fishers, Ind.). The fluorophore-to-antibody ratio of the labeled antibodies was determined using Simply Cellular® anti-mouse IgG beads (Bangs Labs). Finally, conversion of MESF to cell surface antigen density was calculated by dividing by the fluorophore-to-antibody ratio.

[4] = test system: protein translation in MM cell lines and primary MM cells; assay: OP-Puro protein translation assay in vitro; assay type: cell-based
Procedure: To examine whether myeloma cells depend on inherently high protein synthesis, the O-Propargyl-puromycin (OP-Puro) assay was used to measure the rate of amino-acid incorporation into translating ribosomes by flow cytometry.
Protein synthesis levels were determined in vitro utilizing the puromycin analog O-propargyl-puromycin (OP-Puro) in the protein synthesis assay kit (Cayman Chemical) according to manufacturer instructions. For in vivo protein synthesis, engrafted NSG mice were injected IP with 500 μg puromycin (Gibco), then euthanized after 1.5 h, marrow was flushed, and cells stained with anti-puromycin antibody (12D10, Alexa-488, Millipore Sigma), followed by flow cytometry.

[5] = test system: MM cell lines (H929, MM.1S, U266); assay: Seahorse glycolysis stress test (ECAR); assay type: cell-based; conditions: after 4 h
Procedure: MM cell lines were incubated with pomalidomide for 24 h, omacetaxine for 4 h, or in staggered combination. The cells were washed and resuspended in Agilent Seahorse XF DMEM Medium, pH 7.4 (Agilent Technologies, Santa Clara, Calif.). Glycolytic flux, extracellular acidification rate (ECAR) was measured on a Seahorse XFe96 Analyzer using the Seahorse XF Glycolysis Stress Test Kit according to manufacture instructions (Agilent Technologies).

[6] = test system: bone marrow plasma cells from normal donors; assay: Sensitivity of healthy donor bone marrow plasma cells; assay type: cell-based; conditions: 50 nM, 48 h incubation
[7] = test system: primary MM cells from patient bone marrow aspirates; assay: cells
Procedure: The effect of omacetaxine in primary patient samples was tested by incubating marrow mononuclear cells (MNCs) from patient bone marrow aspirates for 48 h and measuring the number of surviving MM cells by multiparameter flow cytometry.
De-identified primary myeloma samples were thawed in a 37° C. water bath and then incubated with 100 μg DNase I (Sigma-Aldrich) for 90 sec. Samples were washed twice with 10 mL Dulbecco's Phosphate Buffered Saline without calcium and magnesium (DPBS). Cells were cultured in RPMI1640 medium containing L-glutamine with 10% FBS and 100 U/mL penicillin, 100 ug/mL streptomycin (Thermo Fisher Scientific), and 2 ng/mL interleukin 6 IL-6 (PreproTech) at 37° C. for 2 h. Cells were then transferred to 96-well plates at […] cells/mL (90,000 MNCs per well) and treated for 48 h. Stock solutions of drug were prepared at 10 mM in dimethylsulfoxide (DMSO) and stored at −20° C. until use.
After 48 h treatment, the primary samples were washed in 1× cold DPBS and re-suspended in BD Brilliant Stain Buffer (BD Biosciences, San Jose Calif.) in a 96-well V-bottom plate. Cells were treated with FcR Blocking Reagent (Miltenyi Biotec, San Diego Calif.) for 5 min and then surface stained with anti-CD19-BV786 anti-CD45-BV510, anti-CD38-PerCP-Cy5.5, anti-CD138-BV421, and anti-CD319-Alexa647 or anti-CD46-Alexa647 antibodies for 10 min on ice. Intracellular staining with anti-kappa-BV605 and anti-lambda-PE light chains was performed after paraformaldehyde fixation and permeabilization. All flow cytometry antibodies were purchased from BD Biosciences. After staining, samples were washed and resuspended with 100 μl DPBS containing 2% FBS (FACS buffer). Viability staining was done using the LIVE/DEAD Fixable Near-IR Dead Cell Stain Kit (Invitrogen, Carlsbad Calif.) by adding 1 μl of 10-fold diluted stain to each well. Flow cytometry data was collected using a BD FACSCelesta Multicolor Cell Analyzer (BD Biosciences, San Jose Calif.) equipped with a HTS. For each sample a fixed volume of 175 μL was collected by the HTS. Flow cytometry data analysis was completed using FlowJo software (FlowJo LLC, Ashland Oreg.). Myeloma populations were analyzed by gating CD19− CD45+/−CD38+ CD138+ based on the cells expressing clonal light chain restriction in each sample.

COC(=O)C[C@](O)(CCCC(C)(C)O)C(=O)O[C@@H]1C(OC)=C[C@]23CCCN2CCc2cc4c(cc2[C@H]13)OCO4 [omacetaxine, Omacetaxine mepesuccinate]
c-MYC protein level in MM cell lines [1]: decreases
effect of combination with Pom on IMiD sensitivity of patient MM cells ([2]; IMiD-resistant relapsed patient sample): re-sensitized
ZIP δ-score for synergy with Pom in patient sample ([2]; IMiD-resistant relapsed patient sample HTB-576): 22.68 and 22.7
MCL1 expression in myeloma cells [3]: rapidly downregulated
translation in primary MM samples after treatment ([4]; 50 nM, 2.5 h, 14 primary samples, to near MNC levels): significantly reduced
EC50 ([4]; Homo sapiens, NCI-H929, 2.5 h, H929 MM cell line and primary patient MM cells, read-out: EC50 of inhibition of protein translation): 9 nM
ability to inhibit translation in myeloma cell lines ([4]; omacetaxine 50 nM 2.5 h, bortezomib 6 h, 24 h, 48 h): observed across all myeloma cell lines tested
effect on metabolism of myeloma cell lines (Seahorse, ECAR) [5]: shut down metabolism
cytotoxicity to normal plasma cells [6]: cytotoxic
cytotoxicity in relation to MCL1 priming (BH3 profiling) of primary samples [7]: potent anti-myeloma activity in samples that were not MCL1 primed
patient samples with >50% reduction in viable MM cells (39/50) ([7]; 50 nM, 48 h, 50 patient samples): 78%
cross-resistance in relapsed/refractory patients resistant to PI and IMiDs ([7]; 50 nM, 48 h ex vivo): did not show cross-resistance
EC50 ([7]; Homo sapiens, 48 h, read-out: EC50 of decrease in MM cell viability ex vivo): 25 to 100 nM
